# Data taken from US20130064768A1, “LIPOPHILIC CATIONIC PROBE FOR PET-IMAGING” (Medical Research Council, priority 2010, published 2013).
# Like-named read-outs stand apart in the source and are kept apart here.
# What was measured:
# [1] = published values; cited from earlier work
# [2] = Tissue and blood distribution of [3H]TPP compounds after iv tail vein injection
# Experimental: A sample of the [^3H]compound solution injected was retained to calculate the specific activity, which was subsequently used to determine the tissue content of the compound. At the indicated times after injection, the mice were killed by cervical dislocation and a blood sample of ˜100-200 μL was obtained by cardiac puncture. The organs were then removed, cleared of blood, transferred to pre-chilled Eppendorf tubes on ice, weighed and stored at −80° C. until processing. The tissues taken were: heart, kidneys, liver, brain, skeletal muscle (gastrocnemius) and white adipose tissue (subcutaneous). […] The mice were monitored after injection to ensure no pathology or distress and all procedures were carried out under the approval of the University of Otago animal ethics committee.
# Extraction of [^3H] Compounds from Tissues Tissues were thawed at room temperature and transferred to 50 mL Falcon tubes. Ice-cold methanol 4° C.; 1 mL/100 mg tissue wet weight) was added to the tissue and the tissue homogenised using an Ultraturrax homogeniser (2×30 s on ice).
# The homogenate was transferred in 1 mL batches to 1.5 mL Eppendorf tubes and centrifuged (10,000×g for 8 min at 4° C.). The methanol extract was decanted into a 20 ml glass scintillation vial (Wheaton) and the methanol evaporated under a stream of N2. Further ice-cold methanol (1 mL/100 mg) was added to the tissue homogenate pellets, vortexed for 1 min, centrifuged as above and the methanol extract decanted to a fresh 20 mL glass scintillation vial and evaporated. This procedure was repeated 3 more times to give 5 extracts per tissue sample. […] The specific activity of the injected [^3H] compound was then used to calculate the tissue content uptake as mol compound/g wet weight tissue. The half lives of compounds in organs were determined from the first order rate constants for loss of [^3H] compound from the organs, measured as the slope of ln[TPP compound] against time for the first 5 h after iv injection.
# [3] = tested on: mitochondrial membrane potential; assay: Effect of the uncoupler DNP on organ uptake of [3H]FluoroUndecylTPP in vivo; set-up: species or system mice; conditions: DNP 200 or 300 μg/kg ip 15 min after probe, organs taken 15 min later; dose dependent
# Experimental: (§1) After 15 min the mice were injected ip with DNP (200 or 300 μg/kg) or saline carrier and after a further 15 min later they were killed and the content of [^3H]FluoroUndecylTPP in the tissues determined. Data are means ± range for two mice per condition. B, IAM-TPP is shown being taken up in to mitochondria within a cell where it reacts with thiol proteins to form a thioether adduct that can then be detected by immunoblotting. C, Confocal image of IAM-TPP binding to mitochondria in cells. C2C12 cells were incubated with 1 μM IAM-TPP for 3 h±10 μM FCCP. The cells were then fixed and the location of the TPP moiety within the cells determined by labelling with antiserum against the TPP moiety, visualised by immunofluorescence confocal microscopy. […] The mitochondria (40 μg protein) were separated by SDS-PAGE and proteins that had been labelled with IAM-TPP were detected by immunoblotting using antiserum against the TPP moiety. […]
# Therefore it is likely that once the alkylTPP compounds are accumulated within tissues they are predominantly localised within mitochondria, driven by the membrane potential. To see if this was the case in these experiments, it was next determined if the uptake of the alkylTPP compounds in vivo was decreased by lowering the mitochondrial membrane potential. […]
# [4] = tested on: liver and heart mitochondria; assay: IAM-TPP uptake by mitochondria in vivo (immunoblot with anti-TPP antiserum); set-up: species or system mice; conditions: 500 nmol iv, mitochondria isolated 1 h later
# Experimental: as §1
# (§2) To assess uptake of IAM-TPP by mitochondria in vivo, mice were injected iv by the tail vein as above with 500 nmol IAM-TPP in 100 μL sterile PBS. One hour later the mice were killed by cervical dislocation and liver and heart mitochondria prepared by homogenisation followed by differential centrifugation and the protein content determined by the bicinchoninic acid assay using bovine serum albumin as a standard. […]
# [5] = Octan-1-ol/PBS partition coefficient; conditions: determined in this study
# C2C12 cells = assay: IAM-TPP uptake into mitochondria within cells (immunocytochemistry, confocal microscopy); type: cell-based, mouse; conditions: 1 μM, 3 h, ±10 μM FCCP
# Experimental: as §1, §2
# [6] = tested on: mitochondrial protein thiols; assay: Incubation of IAM-TPP with isolated mitochondria; conditions: data not shown
# [7] = 24 h after iv injection, other studies; cited from earlier work
# [8] = Monitoring of mice for toxicity after iv injection of TPP cations; type: in vivo; conditions: 100 nmol iv in mice
# Experimental: Female C57/BL6 mice (20-25 g) were maintained on a 12 h light/dark cycle with ad libitum access to standard lab chow and water. […] A sample of the [^3H]compound solution injected was retained to calculate the specific activity, which was subsequently used to determine the tissue content of the compound. At the indicated times after injection, the mice were killed by cervical dislocation and a blood sample of ˜100-200 μL was obtained by cardiac puncture. The organs were then removed, cleared of blood, transferred to pre-chilled Eppendorf tubes on ice, weighed and stored at −80° C. until processing. The tissues taken were: heart, kidneys, liver, brain, skeletal muscle (gastrocnemius) and white adipose tissue (subcutaneous). […] The mice were monitored after injection to ensure no pathology or distress and all procedures were carried out under the approval of the University of Otago animal ethics committee.
# [9] = mice, 100 nmol iv bolus, first 5 h after injection
compound,measurement,setting,value
CCCCCCCCCC[P+](c1ccccc1)(c1ccccc1)c1ccccc1 [DecylTPP],Octanol/PBS partition coefficient,[1],5000
same,half life for clearance from fat and muscle,"[2]; mouse, in vivo, iv",7 to 12 h
same,half life for loss from the heart,"[2]; mouse, in vivo, iv",~15 h
same,half life for loss from the kidneys,"[2]; mouse, in vivo, iv",~3 h
same,half life for loss from the liver,"[2]; mouse, in vivo, iv",~3 h
"CS(=O)(=O)[O-].FCCCCCCCCCCC[P+](c1ccccc1)(c1ccccc1)c1ccccc1 [FluoroUndecylTPP, 11-fluoroundecyltriphenylphosphonium mesylate]",decrease of uptake into the organs by DNP,[3],up to 40%
same,half life for loss from the heart,[2]; [9],~21 h
same,half life for loss from the kidneys,[2]; [9],~3 h
same,half life for loss from the liver,[2]; [9],~3 h
same,enhancement of organ/blood concentration ratio relative to TPMP,"[2]; mice, iv",over a hundred-fold
CS(=O)(=O)[O-].O=C(CI)NCCCCC[P+](c1ccccc1)(c1ccccc1)c1ccccc1 [IAM-TPP],labelling of mitochondrial proteins in vivo,[4],labelling of heart and liver mitochondrial proteins
same,Octanol/PBS partition coefficient,[5],19±1
same,localisation within cells,C2C12 cells,uncoupler-sensitive localisation of IAM-TPP within mitochondria
same,reaction with protein thiols of isolated mitochondria,[6],rapidly reacted with protein thiols
COC1=C(OC)C(=O)C(CCCCCCCCCC[P+](c2ccccc2)(c2ccccc2)c2ccccc2)=C(C)C1=O [MitoQ],Octanol/PBS partition coefficient,[1],2760
same,MitoQ eliminated,[7],~80%
same,uptake by muscle and adipose tissue,[2]; 1 h after 100 nmol iv,lower uptake
same,uptake by the brain,[2]; 1 h after 100 nmol iv,very little uptake
same,uptake by the heart,[2]; 1 h after 100 nmol iv,less extensive uptake
same,uptake by the liver and kidneys,[2]; 1 h after 100 nmol iv,extensive uptake
same,"heart/blood ratio, in ratio (TPMP = 1)",[2]; 1 h after iv injection,11
same,"uptake into the heart, ratio (TPMP = 1)",[2]; 1 h after iv injection,6
same,"heart/blood ratio, in ratio (TPMP = 1)",[2]; 5 h after iv injection,26
same,"uptake into the heart, ratio (TPMP = 1)",[2]; 5 h after iv injection,10
same,half life for loss from the heart,[2]; [9],~15 h
same,half life for loss from the kidneys,[2]; [9],~4 h
same,half life for loss from the liver,[2]; [9],~2 h
same,time of maximum uptake into tissues,"[2]; mice, 100 nmol iv, earliest time measurable",5 min
same,toxicity of the injected amount,[8],non-toxic
C[P+](c1ccccc1)(c1ccccc1)c1ccccc1 [TPMP],half life for loss from the heart,[2]; [9],~2 h
same,half life for loss from the kidneys,[2]; [9],~2 h
same,half life for loss from the liver,[2]; [9],~3 h
same,half life for clearance from fat and muscle,"[2]; mice, 100 nmol iv bolus, estimate only",1 to 2 h
